In PMC9963398, “Discovery of New Quinolone-Based Diarylamides as Potent B-RAF^V600E/C-RAF Kinase Inhibitors Endowed with Promising In Vitro Anticancer Activity” (International Journal of Molecular Sciences, 2023):
Like-named read-outs stand apart in the source and are kept apart here.

Key:
[1] = tested on: NCI-60 human tumor cell lines; assay: NCI-60 five-dose testing, ranges over panel or subpanel; format: cell-based
Method: The anticancer screening of target compounds over a full panel of 60 human cancer cell lines was carried out using Sulforhodamine B (SRB) assay at the National Cancer Institute (NCI), Bethesda, Maryland, USA, employing the standard protocol.

[2] = tested on: NCI-60 human cancer cell lines; assay: NCI-60 single dose (10 µM) testing; format: cell-based; conditions: single dose 10 µM
Method: Encouraged by the promising results in the cell-free assay, the antiproliferative activity of all final compounds was evaluated by the National Cancer Institute (NCI) in a single dose of 10 µM over a library of 60 human cancer cell lines representing nine cancer types; leukemia, non-small cell lung (NSCL), colon, central nervous system (CNS), melanoma, ovarian, renal, prostate, and breast cancer.

B-RAF^V600K = target: T1, B-RAF^V600K (Homo sapiens, UniProt P15056, V600K); assay: HotSpot kinase assay (RBC), B-RAF^V600K; format: biochemical; conditions: 10 µM ATP
T1 construct: purchased Reaction Biology Corporation (RBC), Kinase HotSpot service
T1 sequence (P15056 whole entry V600K): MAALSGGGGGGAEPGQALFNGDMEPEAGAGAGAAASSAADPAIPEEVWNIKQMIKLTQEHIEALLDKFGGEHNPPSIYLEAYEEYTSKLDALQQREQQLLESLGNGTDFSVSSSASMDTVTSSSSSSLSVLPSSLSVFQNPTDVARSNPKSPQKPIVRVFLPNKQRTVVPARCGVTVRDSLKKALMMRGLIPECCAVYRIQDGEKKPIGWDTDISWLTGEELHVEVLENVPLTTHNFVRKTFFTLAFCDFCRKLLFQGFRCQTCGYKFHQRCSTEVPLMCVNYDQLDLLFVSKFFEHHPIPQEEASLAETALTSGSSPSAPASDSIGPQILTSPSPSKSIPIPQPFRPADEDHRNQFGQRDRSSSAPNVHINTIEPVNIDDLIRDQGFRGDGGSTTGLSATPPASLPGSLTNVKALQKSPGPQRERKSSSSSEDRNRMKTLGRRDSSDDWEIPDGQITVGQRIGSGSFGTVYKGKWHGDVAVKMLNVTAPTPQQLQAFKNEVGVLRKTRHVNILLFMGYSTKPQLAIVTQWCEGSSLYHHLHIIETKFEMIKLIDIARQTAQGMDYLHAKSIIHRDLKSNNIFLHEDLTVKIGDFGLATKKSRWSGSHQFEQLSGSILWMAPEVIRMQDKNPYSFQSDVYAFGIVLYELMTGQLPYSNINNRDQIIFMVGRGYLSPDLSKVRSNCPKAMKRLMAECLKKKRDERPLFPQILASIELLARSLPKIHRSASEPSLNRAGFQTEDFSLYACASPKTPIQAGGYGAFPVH
Method: To gain insight into the inhibitory mode of this new array of quinolines, 18a was tested at 1 µM concentration of ATP to compare it with its IC50 at 10 µM (Table 2).

A498 = assay: NCI-60 five-dose SRB assay; format: cell-based; conditions: Homo sapiens; A498, Renal cancer, five-dose test
Outline: (§1)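 Standard NCI procedure: compounds applied to the 60 human cancer cell lines, followed by SRB staining to quantify cell mass.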

SK-OV-3 = assay: NCI-60 five-dose SRB assay; format: cell-based; conditions: Homo sapiens; SK-OV-3, Ovarian cancer, five-dose test
Outline: as §1

RXF 393 = assay: NCI-60 five-dose SRB assay; format: cell-based; conditions: Homo sapiens; RXF 393, Renal cancer, five-dose test
Outline: as §1

HCC-2998 = assay: NCI-60 five-dose SRB assay; format: cell-based; conditions: Homo sapiens; HCC-2998, Colon cancer, five-dose test
Outline: as §1

NCI/ADR-RES = assay: NCI-60 five-dose SRB assay; format: cell-based; conditions: Homo sapiens, Ovarian cancer, five-dose test
Outline: as §1

NCI-H460 = assay: NCI-60 five-dose SRB assay; format: cell-based; conditions: Homo sapiens; NCI-H460, NSCL cancer, five-dose test
Outline: as §1

OVCAR-5 = assay: NCI-60 five-dose SRB assay; format: cell-based; conditions: Homo sapiens; OVCAR-5, Ovarian cancer, five-dose test
Outline: as §1

SK-MEL-28 = assay: NCI-60 five-dose SRB assay; format: cell-based; conditions: Homo sapiens; SK-MEL-28, Melanoma, five-dose test
Outline: as §1

786-0 = assay: NCI-60 five-dose SRB assay; format: cell-based; conditions: Homo sapiens; 786-0, Renal cancer, five-dose test
Outline: as §1

COLO 205 = assay: NCI-60 five-dose SRB assay; format: cell-based; conditions: Homo sapiens; COLO 205, Colon cancer, five-dose test
Outline: as §1

U251 = assay: NCI-60 five-dose SRB assay; format: cell-based; conditions: Homo sapiens, U-251; U251, CNS cancer, five-dose test
Outline: as §1

OVCAR-8 [3] = assay: NCI-60 five-dose SRB assay; format: cell-based; conditions: Homo sapiens; OVCAR-8, Ovarian cancer, five-dose test
Outline: as §1

UACC-257 = assay: NCI-60 five-dose SRB assay; format: cell-based; conditions: Homo sapiens; UACC-257, Melanoma, five-dose test
Outline: as §1

OVCAR-3 = assay: NCI-60 five-dose SRB assay; format: cell-based; conditions: Homo sapiens; OVCAR-3, Ovarian cancer, five-dose test
Outline: as §1

CCRF-CEM [4] = assay: NCI-60 five-dose SRB assay; format: cell-based; conditions: Homo sapiens, Leukemia, five-dose test
Outline: as §1

NCI-H23 = assay: NCI-60 five-dose SRB assay; format: cell-based; conditions: Homo sapiens; NCI-H23, NSCL cancer, five-dose test
Outline: as §1

SN12C = assay: NCI-60 five-dose SRB assay; format: cell-based; conditions: Homo sapiens, Renal cancer, five-dose test
Outline: as §1

SNB-75 = assay: NCI-60 five-dose SRB assay; format: cell-based; conditions: Homo sapiens; SNB-75, CNS cancer, five-dose test
Outline: as §1

EKVX [5] = assay: NCI-60 five-dose SRB assay; format: cell-based; conditions: Homo sapiens, NSCL cancer, five-dose test
Outline: as §1

OVCAR-4 = assay: NCI-60 five-dose SRB assay; format: cell-based; conditions: Homo sapiens; OVCAR-4, Ovarian cancer, five-dose test
Outline: as §1

MCF7 = tested on: MCF7; parameters: method as in PMID 32745753; conditions: MCF7, Breast cancer; cited from earlier work
KM12 = tested on: KM12; parameters: method as in PMID 32745753; conditions: KM12, Colon cancer; cited from earlier work
MDA-MB-231/ATCC = conditions: Breast cancer; cited from earlier work
HOP-62 = tested on: HOP-62; parameters: method as in PMID 32745753; conditions: HOP-62, NSCL cancer; cited from earlier work
CCRF-CEM [6] = tested on: CCRF-CEM; parameters: method as in PMID 32745753; conditions: Leukemia; cited from earlier work
OVCAR-8 [7] = tested on: OVCAR-8; parameters: method as in PMID 32745753; conditions: OVCAR-8, Ovarian cancer; cited from earlier work
NCI-H522 = tested on: NCI-H522; parameters: method as in PMID 32745753; conditions: NCI-H522, NSCL cancer; cited from earlier work
EKVX [8] = tested on: EKVX; parameters: method as in PMID 32745753; conditions: NSCL cancer; cited from earlier work
HCT-116 = tested on: HCT-116; parameters: method as in PMID 32745753; conditions: HCT-116, Colon cancer; cited from earlier work
MDA-MB-468 = conditions: MDA-MB-468, Breast cancer; cited from earlier work
SF-268 = tested on: SF-268; parameters: method as in PMID 32745753; conditions: SF-268, CNS cancer; cited from earlier work

CN1CCCN(Cc2ccc(C(=O)Nc3cccc(Nc4ccc5c(O)cccc5n4)c3)cc2C(F)(F)F)CC1 [Compound 17b, N-(3-((5-hydroxyquinolin-2-yl)amino)phenyl)-4-((4-methyl-1,4-diazepan-1-yl)methyl)-3-(trifluoromethyl)benzamide]
GI50 ([1]; Homo sapiens, MOLT-4, all leukemia cell lines, except MOLT-4): > 2000 nM
GI50 ([1]; Homo sapiens, colon cancer cell lines, range over lines): < 2000 nM
GI50 ([1]; Homo sapiens, melanoma cell lines, range over lines): 1600 to 1890 nM
GI50 ([1]; melanoma cell lines, range over lines): < 2000 nM
growth percent ([2]; MALME-3M, MDA-MB-435, SK-MEL-2, and UACC-62): less than -90
growth percent ([2]; melanoma LOX IMVI, SK-MEL-28, and SK-MEL-5): −100
growth percent ([2]; melanoma SK-MEL-29, SK-MEL-5, and UACC-62): under −90%
IC50 (B-RAF^V600K): 61.6 ± 1 nM
GI50 (A498): 15300 nM
GI50 (SK-OV-3): 11100 nM
GI50 (RXF 393): 1850 nM
GI50 (HCC-2998): 1800 nM
GI50 (NCI/ADR-RES): 6430 nM
GI50 (NCI-H460): 1810 nM
GI50 (OVCAR-5): 11400 nM
GI50 (SK-MEL-28): 1820 nM
GI50 (786-0): 2060 nM
GI50 (COLO 205): 1830 nM
GI50 (U251): 2070 nM
GI50 (OVCAR-8 [3]): 2510 nM
GI50 (UACC-257): 1600 nM
GI50 (OVCAR-3): 1970 nM
GI50 (CCRF-CEM [4]): 2070 nM
GI50 (NCI-H23): 1780 nM
GI50 (SN12C): 1830 nM
GI50 (SNB-75): 1320 nM
GI50 (EKVX [5]): 1820 nM
GI50 (OVCAR-4): 3830 nM

CNC(=O)c1cc(Oc2ccc(NC(=O)Nc3ccc(Cl)c(C(F)(F)F)c3)cc2)ccn1 [Sorafenib]
GI50 (MCF7): 2800 nM
GI50 (KM12): 1600 nM
GI50 (MDA-MB-231/ATCC): 1300 nM
GI50 (HOP-62): 1900 nM
GI50 (CCRF-CEM [6]): 2200 nM
GI50 (OVCAR-8 [7]): 3000 nM
GI50 (NCI-H522): 2100 nM
GI50 (EKVX [8]): 2500 nM
GI50 (HCT-116): 1700 nM
GI50 (MDA-MB-468): 2000 nM
GI50 (SF-268): 2500 nM
